# Data taken from patent publication US20230355749A1, “Immunomodulatory Compounds And Use Thereof For The Treatment And/Or Prevention Of Infectious Diseases” (AC […], priority 2020, published 2023).
# Structures can show the parent of a compound that is named as a salt.
# Experiments:
# [1] = tested on: Bone-marrow derived dendritic cells (BMDC); assay: Cytokine secretion by ELISA in BMDC stimulated with LPS and OVA257-264 peptide; assay type: cell-based, C57BL/6 mice; details: LPS 100 ng/ml + OVA257-264 peptide 10 μM, after 24 hours
# Method: (§1) Cells were analysed for expression of co-stimulatory markers and MHC complexes at the cell surface by FACS, gated on the live CD11c+ population. Panel A) Median fluorescence intensity ([…]) of CD40, CD80 and CD86 expression. Panel B) Overall expression of MHC-II, given by the expression of I-Ab. Panel C) Relative surface expression of MHC-I (H2-Kb): OVA257-264 peptide complexes over the total surface expression of H2-Kb. Panel D) Quantification of cytokine secretion by ELISA. Data is expressed as the mean+/−standard error of the mean (SEM). Statistical significance was determined by a student's t-test with *p≤0.05.
# (§2) LPS (100 ng/ml) was used in this instance as a model Toll-like Receptor ligand for a pathogen and a surrogate for the licensed TLR-specific adjuvant-MPLA.
# [2] = tested on: immature DC (CD11c+MHC-II int); assay: Endocytosis (uptake) of OVA-AF647 protein by immature DC; assay type: cell-based, C57BL/6 mice; details: pretreated 3 hours (ACB1801s 20 μM), OVA-AF647 2 μg/ml; for percentage of OVA-AF647+ cells: 3 mice, vehicle 71.00+/−0.058; for Median Fluorescence Intensity of OVA-AF647 within the positive population (amount of protein taken up): vehicle 5533.33+/−60.26, P≤0.0001
# LPS-matured BMDC = details: DC matured with 100 ng/ml LPS 36 h; pretreated 1 hour, Eα55-68 pulse 3 hours, analyzed after 24 hours; live CD11c+MHC-II(I-Ab) high; vehicle 1553.33±54.93, p=0.03
# Source text: Specifically, these complexes were recognized using fluorochrome-labelled monoclonal antibodies of Y-Ae for I-Ab: Eα55-68 complexes and 25-D1.16 for H2-Kb: OVA257-264 complexes. In all experiments, BMDC were differentiated in vitro from bone marrow precursor cells of C57BL/6 mice using GM-CSF and IL-4 at 250 and 5 UI/ml, respectively.
# [3] = tested on: Bone-marrow derived dendritic cells (BMDC); assay: Co-stimulatory marker and MHC surface expression by FACS in BMDC stimulated with LPS and OVA257-264 peptide; assay type: cell-based, C57BL/6 mice; details: pre-treated 1 hour, then LPS 100 ng/ml + OVA257-264 peptide 10 μM for 24 hours; live CD11c+ population
# Method: as §1, §2
Compound,"levels of pro-inflammatory cytokines (IL-6, and TNF) [1]",percentage of OVA-AF647+ cells [2],Median Fluorescence Intensity of OVA-AF647 within the positive population (amount of protein taken up) [2],Median Fluorescence Intensity (MFI) of I-Ab: Eα55-68 specific complexes (LPS-matured BMDC),expression of CD80/CD86 co-stimulatory markers [3],overall expression of surface MHC-II (I-Ab) [3]
"COc1ccc2c(c1)[nH]c1c(C)nccc12.Cl [ACB1801s, harmine HCl]",reduced,72.37+/−0.94,6725.67+/−41.450,1742.33±15.62,increased,increased
"Cc1[nH]ccc2c1[nH]c1cc(=O)ccc12 [ACB1804s, harmol HCl]",,73.867+/−0.751,6628+/−98.475,,,
